Results on 71 compounds are retold here after the OPERA property sets (Mansouri et al. 2018).

Conditions in the first data set: not given
`CC(COc1ccc(Oc2ccccc2)cc1)Oc1ccccn1` (stereo unspecified) showed a log10 vapour pressure (mmHg) of -5.66 and a melting point of 46 °C.

For `CCC=Cc1ccccc1`, the boiling point stood at 199 °C and the melting point is -43.1 °C. In the case of `CCCCC(Cl)CCl` (stereo unspecified), the boiling point was 173 °C.

`Cc1cccc(N)n1` registered a boiling point of 208 °C and a melting point of 41 °C. `OCCOc1ccc(Cl)cc1Cl` came in with a log10 vapour pressure (mmHg) of -3.7. Take `Cn1ccccc1=O`: the boiling point is 250 °C and the melting point was determined as 31 °C. `CCC(O)C(C)(C)C` (stereo unspecified) displayed a boiling point of 135 °C and a melting point of -5 °C. For `OCCN1CN(CCO)CN(CCO)C1`, the ready biodegradability result is recorded as “readily biodegradable”.

In the case of `O=Cc1ccc(Cl)cc1`, the boiling point came out at 214 °C and the melting point was 47.5 °C. With `CCC(C)c1ccc(O)cc1` (stereo unspecified), the boiling point came out at 241 °C, the log10 vapour pressure (mmHg) is -1.43, the melting point turned out to be 61.5 °C and the ready biodegradability entry is recorded as “not readily biodegradable”. Compound `NS(=O)(=O)c1ccc(SCCCCO)cc1` gave a melting point of 101 °C. Turning to `Oc1cccc(F)c1`, the boiling point came out at 178 °C and the melting point was determined as 13.7 °C.

With `Clc1ccccc1I`, the boiling point amounted to 234 °C and the melting point is 0.7 °C.

With `Cc1ccco1`, the boiling point was 65 °C, the log10 vapour pressure (mmHg) amounted to 2.19 and the melting point is -87.5 °C. `C=O`: the boiling point was -19.1 °C, the log10 Henry constant (atm·m³/mol) was -6.47 and the ready biodegradability entry was “readily biodegradable”. Compound `COCC(=O)O` gave a boiling point of 204 °C, a log10 vapour pressure (mmHg) of -0.839 and a melting point of 7.7 °C.

In turn, `Cc1cccc(CBr)c1` gave a boiling point of 212 °C. Regarding `CCCC=CCO`, the boiling point is 157 °C.

Consider `c1ccc(Cc2ccc(-c3ccccc3)cc2)cc1`, for which the melting point was determined as 85 °C. With `FC1=C(F)C(F)(F)C1(F)F`, the boiling point stood at 5.5 °C and the melting point is -60 °C. `CC(C)c1ccc(O)cc1` yielded a boiling point of 230 °C, a log10 vapour pressure (mmHg) of -1.34 and a melting point of 62.3 °C. For the compound `CCCCCCC#N`, the boiling point was 183 °C. `CC(=O)c1cccc(Br)c1` registered a melting point of 7.5 °C. `Cc1ccc(N)cc1Cl`: the boiling point came to 243 °C and the melting point came out at 26 °C. Take `COc1cc(O)c2c(=O)c3cc(O)ccc3oc2c1`: the melting point was 266 °C.

In turn, `CC1(C)C2CCC1(C)C(Cl)C2` (stereo unspecified) registered a boiling point of 208 °C and a melting point of 132 °C. `Cc1cccc(C)c1NC(=O)c1ccc[nH]c1=O` returned a melting point of 266 °C. In the case of `CCCCCCCCOC(=O)c1ccccc1C(=O)OCCCCCCCC(C)C`, the boiling point worked out at 447 °C and the melting point came out at 98 °C.

On to `COC(C)(C)CCOC(C)=O`, for which the ready biodegradability entry is reported as “readily biodegradable”. `COP(=S)(OC)Oc1ccc([N+](=O)[O-])cc1Cl` yielded a log10 vapour pressure (mmHg) of -5.44 and a melting point of 52.5 °C. Consider `c1cnc2c(c1)ccc1cccnc12`, for which the melting point is 117 °C. On to `Nc1ncn([C@@H]2O[C@H](CO)[C@@H](O)[C@H]2O)c(=O)n1`, for which the melting point was 229 °C. In the case of `CCCCCCCCCCCC(=O)NCCC[N+](C)(C)CC(=O)[O-]`, the ready biodegradability result is given as “readily biodegradable”. Turning to `Oc1ccc(Br)cc1Br`, the boiling point was determined as 238 °C, the melting point is 38 °C and the ready biodegradability entry was “not readily biodegradable”.

Take `CC(CC(C)(C)C)CC(C)(C)C`: the boiling point is 178 °C and the melting point is -67 °C.

`CC[Si](OC)(OC)OC` showed a boiling point of 124 °C. In turn, `O=C1c2ccccc2C(=O)C1c1ccc(F)cc1` gave a melting point of 120 °C.

With `CCC(Oc1ccccc1)C(=O)O` (stereo unspecified), the boiling point was found to be 258 °C and the melting point was 98 °C. As to `Cl[C@H]1[C@H](Cl)[C@@H](Cl)[C@H](Cl)[C@@H](Cl)[C@H]1Cl` (racemic), the ready biodegradability entry is “not readily biodegradable”.

Compound `CC(CC(=O)O)CC(=O)O` returned a melting point of 87 °C. The same measure, in the same setting: for `CCC(=O)c1ccc(Br)cc1` the value was 48 °C; for `N#CCC(=O)c1ccccc1`, 80.5 °C. In the case of `CC1=CCC2CC1C2(C)C` (stereo unspecified), the log10 Henry constant (atm·m³/mol) was -0.873, the log10 vapour pressure (mmHg) came out at 0.677 and the ready biodegradability result is reported as “readily biodegradable”. `CCCCCCCCCCc1ccccc1` gave a boiling point of 298 °C, a log10 vapour pressure (mmHg) of -2.89 and a melting point of -14.4 °C. Consider `CCCCCCOc1ccccc1`, for which the boiling point amounted to 240 °C and the melting point was -19 °C.

As for `CN1[C@@H]2CC[C@H]1C[C@@H](O)C2`, the boiling point amounted to 237 °C and the melting point came out at 86.5 °C.

Turning to `CCCCCCCCCCCCCCCCCCNC(=O)N1CC1`, the ready biodegradability entry is listed as “not readily biodegradable”. Consider `CC(=O)NC(N)=S`, for which the melting point turned out to be 165 °C. Still for that read-out and setting: with `O=c1c(O)c(O)c(=O)c1=O` the figure was 150 °C. On the same count and under the same terms, with `CN[C@@H](Cc1ccc(O)cc1)C(=O)O` the figure was 293 °C. Turning to `C=C(C)C(=O)OCC(C)O` (stereo unspecified), the ready biodegradability result was “readily biodegradable”. In the case of `Clc1ccc(Cc2ccc(Cl)cc2)cc1`, the melting point was 55.5 °C. On to `OC(C(F)(F)F)(C(F)(F)F)C(F)(F)F`, for which the boiling point amounted to 45 °C.

Turning to `c1ccc2scnc2c1`, the boiling point was 231 °C, the melting point turned out to be 2 °C and the ready biodegradability result is “not readily biodegradable”. The compound `CC(=S)Nc1ccccc1` came in with a melting point of 77.5 °C. Same read-out and setting: for `O=C(c1ccccc1)c1ccc([N+](=O)[O-])cc1` the value was 138 °C.

Compound `CC1CCc2ccccc2C1` (stereo unspecified) returned a boiling point of 221 °C and a melting point of -43.1 °C. In turn, `CCOP(=O)(OCC)OC(=CCl)c1ccc(Cl)cc1Cl` came in with a log10 Koc (L/kg) of 2.47, a log10 vapour pressure (mmHg) of -5.12 and a melting point of -20 °C. `CC/C=C/C(C)C` returned a boiling point of 85.9 °C and a melting point of -142 °C. In turn, `Brc1ccc(Oc2ccc(Br)cc2Br)c(Br)c1` yielded a log10 Koa of 10.5, a log10 vapour pressure (mmHg) of -7.15 and a lipophilicity (logP) of 6.81. `CC(C)CN(CC(C)C)CC(C)C` showed a boiling point of 192 °C and a melting point of -21.8 °C.

Take `CCN1C(=O)NC(c2ccccc2)C1=O` (stereo unspecified): the melting point was determined as 94 °C. As for `CCCl`, the boiling point stood at 12.3 °C, the log10 Henry constant (atm·m³/mol) is -1.95, the log10 vapour pressure (mmHg) is 3 and the melting point is -139 °C. Moreover, the ready biodegradability result is listed as “not readily biodegradable”. In turn, `CC(C)CCCC(C)CCCC(C)CCCCC(C)CCCC(C)CCCC(C)C` (stereo unspecified) returned a boiling point of 350 °C, a log10 biodegradation half-life (days) of 1.62 and a melting point of -38 °C. `O=C(CCl)OC(=O)CCl` displayed a boiling point of 203 °C, a log10 vapour pressure (mmHg) of -1.43 and a melting point of 46 °C. With `CCC(Br)(CC)C(=O)NC(N)=O`, the melting point is 118 °C. In the case of `CCCCCCCCCCCCCCCO`, the log10 vapour pressure (mmHg) is -4.41, the melting point is 45.5 °C and the ready biodegradability entry is listed as “readily biodegradable”.

With `CCCOC(=O)c1ccccc1`, the boiling point was 211 °C, the log10 vapour pressure (mmHg) was -0.867 and the melting point was -51.6 °C. In the case of `FC(F)=C(Cl)C(F)(F)F`, the boiling point amounted to 6.8 °C and the melting point was -130 °C.

`C[Si](C)(C)N=C=N[Si](C)(C)C` came in with a boiling point of 164 °C and a melting point of -23 °C.

The data set is the same for the next values; noted with them: fish.
In turn, `O=Cc1ccc(Cl)cc1` came in with a log10 BCF of 0.32 and a log10 biotransformation half-life (days) of 0.01. `CCC(C)c1ccc(O)cc1` (stereo unspecified) displayed a log10 BCF of 1.31 and a log10 biotransformation half-life (days) of -0.84. `COP(=S)(OC)Oc1ccc([N+](=O)[O-])cc1Cl` had a log10 BCF of 1.89 and a log10 biotransformation half-life (days) of 0.01. For `CC(CC(C)(C)C)CC(C)(C)C`, in that order: 2.94 and 0.72. As for `CCCCCCCCCCc1ccccc1`, the log10 biotransformation half-life (days) stood at 0.63.

The compound `CC(C)C1CCC(C(C)C)CC1` (stereo unspecified) gave a log10 biotransformation half-life (days) of 0.97. Take `c1ccc2scnc2c1`: the log10 BCF stood at 0.88 and the log10 biotransformation half-life (days) is -0.86. Regarding `Brc1ccc(Oc2ccc(Br)cc2Br)c(Br)c1`, the log10 BCF is 5.84 and the log10 biotransformation half-life (days) stood at 1.6.
